Source: patent US20120087985A1, “SMALL PEPTIDE SEQUENCES FOR STABILIZING BIOMOLECULES” (Biodel Inc., priority 2010, published 2012)

Assays:
Glucose oxidase = Glucose oxidase (Aspergillus niger, UniProt P13006); experiment: Stabilization and precipitation of glucose oxidase by SPS; format: physicochemical
Glucagon = Glucagon (Homo sapiens, UniProt P01275); experiment: Entrapment and precipitation of glucagon in SPS particles; format: physicochemical
Description: Synthesis of SPS and Precipitation of Glucagon
These sequences are soluble at very low pH and form microparticles that trap peptides in solution within the particles. They remain intact at pH 3-5 in the vicinity of their isoelectric point. Solubility increases in the physiological pH range.

[1] = pH of the solution brought to neutral

Sequence of Glucagon (P01275 53-81 limits assumed, species assumed): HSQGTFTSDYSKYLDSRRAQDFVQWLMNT
Sequence of Glucose oxidase (P13006 17-605, species assumed): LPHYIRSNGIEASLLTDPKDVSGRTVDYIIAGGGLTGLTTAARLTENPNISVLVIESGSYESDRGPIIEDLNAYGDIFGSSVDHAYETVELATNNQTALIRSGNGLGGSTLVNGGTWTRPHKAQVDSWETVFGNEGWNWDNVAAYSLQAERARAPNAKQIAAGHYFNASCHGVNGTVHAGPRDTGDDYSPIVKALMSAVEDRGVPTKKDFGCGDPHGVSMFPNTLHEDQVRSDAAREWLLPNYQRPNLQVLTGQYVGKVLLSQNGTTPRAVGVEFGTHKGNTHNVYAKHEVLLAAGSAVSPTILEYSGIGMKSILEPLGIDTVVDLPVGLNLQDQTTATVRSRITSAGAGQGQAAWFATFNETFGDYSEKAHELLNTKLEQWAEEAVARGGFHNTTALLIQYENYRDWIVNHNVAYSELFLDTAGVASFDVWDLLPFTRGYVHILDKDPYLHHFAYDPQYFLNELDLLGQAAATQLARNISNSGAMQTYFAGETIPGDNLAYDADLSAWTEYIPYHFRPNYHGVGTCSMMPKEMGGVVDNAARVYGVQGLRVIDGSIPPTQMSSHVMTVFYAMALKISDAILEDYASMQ

Substance: H-Aspartic Acid-Tryptophan-Aspartic Acid —OH
- stabilization and precipitation of glucose oxidase (Glucose oxidase; in aqueous solution, stored along with insulin glargine at a pH of 4): stabilized and precipitated
- release of glucose oxidase (Glucose oxidase; [1]): released intact
- glucagon remained in the particles (entrapment efficiency) (Glucagon; glucagon entrapped in SPS particles): more than 60%
- stabilization of glucagon (Glucagon; in aqueous solution): stabilized it in aqueous solution
- release of glucagon (Glucagon; [1]): released the glucagon intact
